Counter-ions that a name gives are not always drawn. Like-named read-outs stand apart in the source and are kept apart here.
How the values were obtained:
Assay type in all cases: physicochemical
[1] = Solid-state stability (HPLC purity and XRPD crystal form on storage); conditions: for Purity (area %) / Initial purity (area %): HPLC; for Initial purity (area %): starting sample before storage
Description: About 10 mg of each solid form of the compound was weighed and added to the HPLC vial, respectively, the bottleneck was sealed with a sealing film, and 10 small holes were made on the film. The vial was placed in 25° C/60% RH and 40° C/75% RH environment for 4 weeks, samples were taken in the 1st week, the 2rd week and the 4th week respectively, the purity (by HPLC analysis) and crystal form (by X ray powder diffraction analysis) of the sample were investigated. […]

[2] = Hygroscopicity by dynamic moisture absorption (DVS); conditions: 25°C/80% RH; for moisture adsorption: DVS, 0% RH-95% RH adsorption curve; for hygroscopicity classification: criteria of 2015 edition of the Chinese Pharmacopoeia (Guidelines for Drug Hygroscopicity Test)
Description: Dynamic moisture adsorption (DVS) analysis: the instrument is a DVS Intrinsic produced by SMS company (Surface Measurement Systems); temperature, 25° C.; carrier gas, flow rate: nitrogen, 200 mL/min; mass change per unit time: 0.002%/min; relative humidity range: 0%RH-95%RH.
Dynamic moisture absorption (DVS) was used to test their hygroscopicity.

[3] = Approximate solubility in purified water
Description: To determine the approximate solubility, the corresponding solid form sample was added to a 3 mL glass vial. Purified water was incrementally introduced (50, 50, 200, and 700 µL) while vortexing and ultrasonically agitating to facilitate dissolution. […] Solvent addition was halted either when full dissolution was achieved or when the total water volume reached 1 mL. The approximate solubility was then calculated based on the final solvent volume used.

[4] = Dynamic solubility in biorelevant media SGF, FaSSIF or water; conditions: 37°C, dosed at 10 mg/mL, 1-24 hours, Figure 31
Description: The dynamic solubility of fumarate crystal form B, hydrochloride crystal form C, sulfate crystal form D, succinate crystal form E, malate crystal form F, and free crystal form A was assessed at 37°C in biorelevant media SGF, FaSSIF or water. All samples were dosed at 10 mg/mL in each solvent. The samples were sealed and mounted on a rotating disk rotating at 25 rpm, and the rotating disk was placed in a 37° C. incubator. Samples were taken at time points 1, 2, 4, and 24 hours of equilibration, and the filtrate was separated and tested concentration by HPLC and pH, while isolated solids were characterized by XRPD.

[5] = 25°C/60% RH and 40°C/75% RH, 4 weeks

SMILES | Purity (area %) ([1]; 25°C /60%RH/open, 1 week) | Purity (area %) ([1]; 25°C /60%RH/open, 2 weeks) | Purity (area %) ([1]; 25°C /60%RH/open, 4 weeks) | Purity (area %) ([1]; 40°C /75%RH/open, 1 week) | Purity (area %) ([1]; 40°C /75%RH/open, 2 weeks) | Purity (area %) ([1]; 40°C /75%RH/open, 4 weeks) | Initial purity (area %) [1] [area %] | moisture adsorption [2] [%] | hygroscopicity classification [2] | Solubility [3] | Solubility ([3]; listed as Free form crystal A) | HPLC purity [1, 5] | crystal form (XRPD) before and after placement [1, 5] | dynamic solubility ([4]; FaSSIF) | dynamic solubility ([4]; water)
CNCc1ccc(NS(=O)(=O)c2ccsc2)c(-c2ccco2)c1 [Phosphate crystal form G, N-(2-(furan-2-yl)-4-((methylamino)methyl)phenyl)thiophene-3-sulfonamide] | 98.11 | 98.09 | 98.04 | 98.11 | 98.06 | 98.01 | 98.11 |  |  |  |  |  |  |  | 
CNCc1ccc(NS(=O)(=O)c2ccsc2)c(-c2ccco2)c1 [hydrochloride crystal form C, N-(2-(furan-2-yl)-4-((methylamino)methyl)phenyl)thiophene-3-sulfonamide] | 98.97 | 98.92 | 98.87 | 99.02 | 98.9 | 99 | 99.02 | 5.5 | hygroscopic |  |  |  |  |  | 
CNCc1ccc(NS(=O)(=O)c2ccsc2)c(-c2ccco2)c1 [Malonate crystal form K, N-(2-(furan-2-yl)-4-((methylamino)methyl)phenyl) thiophene-3-sulfonamide] | 98.64 | 98.61 | 98.59 | 98.64 | 98.58 | 98.46 | 98.64 |  |  |  |  |  |  |  | 
CNCc1ccc(NS(=O)(=O)c2ccsc2)c(-c2ccco2)c1 [Pyroglutamate crystal form I, N-(2-(furan-2-yl)-4-((methylamino)methyl)phenyl)thiophene-3-sulfonamide] | 98.61 | 98.58 | 98.57 | 98.61 | 98.54 | 98.32 | 98.61 |  |  | S>38.0 mg/mL |  |  |  |  | 
CNCc1ccc(NS(=O)(=O)c2ccsc2)c(-c2ccco2)c1 [benzene sulfonate crystal form J, N-(2-(furan-2-yl)-4-((methylamino)methyl)-phenyl)thiophene-3-sulfonamide] | 98.87 | 98.85 | 98.82 | 98.87 | 98.82 | 98.79 | 98.87 |  |  |  |  |  |  |  | 
CNCc1ccc(NS(=O)(=O)c2ccsc2)c(-c2ccco2)c1 [free crystal form A, N-(2-(furan-2-yl)-4-((methylamino)methyl)phenyl)thiophene-3-sulfonamide] | 98.18 | 98.14 | 98.1 | 98.19 | 98.2 | 98.13 | 98.11 | 1.6 | slightly hygroscopic |  | S<2.0 mg/mL | did not decrease significantly | no detectable crystalline phase changes | negligible dissolution | negligible dissolution
CNCc1ccc(NS(=O)(=O)c2ccsc2)c(-c2ccco2)c1 [malate crystal form F, N-(2-(furan-2-yl)-4-((methylamino)methyl)phenyl)thiophene-3-sulfonamide] | 98.72 | 98.7 | 98.79 | 98.74 | 98.75 | 98.68 | 98.72 | 1.4 | slightly hygroscopic |  |  |  |  |  | 
CNCc1ccc(NS(=O)(=O)c2ccsc2)c(-c2ccco2)c1 [succinate crystal form E, N-(2-(furan-2-yl)-4-((methylamino)methyl)phenyl)thiophene-3-sulfonamide] | 98.92 | 98.86 | 98.94 | 98.92 | 98.72 | 98.98 | 98.82 | 0.6 | slightly hygroscopic |  |  |  |  |  | 
CNCc1ccc(NS(=O)(=O)c2ccsc2)c(-c2ccco2)c1 [sulfate crystal form D, N-(2-(furan-2-yl)-4-((methylamino)methyl)phenyl)thiophene-3-sulfonamide] | 98.74 | 98.65 | 98.78 | 98.76 | 98.65 | 98.78 | 98.77 | 1.3 | slightly hygroscopic |  |  |  |  |  | 
CNCc1ccc(NS(=O)(=O)c2ccsc2)c(-c2ccco2)c1 [Tartrate crystal form H, N-(2-(furan-2-yl)-4-((methylamino)methyl)phenyl)thiophene-3-sulfonamide] | 98.71 | 98.62 | 98.6 | 98.7 | 98.6 | 98.53 | 98.71 |  |  |  |  |  |  |  | 
CNCc1ccc(NS(=O)(=O)c2ccsc2)c(-c2ccco2)c1 [fumarate crystal form B, N-(2-(furan-2-yl)-4-((methylamino)methyl)phenyl)thiophene-3-sulfonamide] | 98.53 | 98.47 | 98.57 | 98.4 | 98.5 | 98.52 | 98.55 | 0.2 | slightly hygroscopic |  |  |  |  |  | 
